Experimental data reported in patent US20090324718A1, “IMATINIB COMPOSITIONS” (priority 2006, published 2009).
Where a name gives a salt, the structure may show the parent alone.

Key:
Format in all cases: physicochemical
[1] = Physical form of the active drug in the sample; settings: 55° C./75% RH Day 0
[2] = Chemical stability on storage: HPLC Assay and Impurities and Degradation Determination (IDD); settings: for Chemical: Assay: HPLC; for Chemical: main deg: HPLC IDD
Procedure: The term “chemical stability” as used herein relates to the presence or absence of degradation products of the active pharmaceutical ingredient (API) as measure over time. Chemical stability is measured as the Assay of the material and/or the level of degradants. Stability is defined as having an Assay of at least about 90%, as determined by an HPLC assay method and/or having a minimum level of degradants, as determined by an HPLC Impurities and Degradation Determination (IDD) method over time. Preferably, a chemically stable composition as in the present inventor has an assay of at least 95%, more preferably at least 98%, as determined by an HPLC assay over time (storage time).
The stability of the examples described herein were tested using various analytical methods. One analytic method used is a determination using HPLC. The following HPLC method was used for the examples described below where HPLC was used as an analytic method.
(§1) The table below summarizes all test results (Assay, IDD, weight gain, and appearance). The appearance data is scored from 1 to 5 (1=very good (no change in color and texture of the sample), see an example of “Score=1” in Table 2, example 10, Day 0, 5=not good (changed both in color (became yellow) and in texture (absorbed water and reduced shine of sample)), see an example of “Score=4-5” in Table 2, example 9, time Day 5), and is supported by pictures presented in Table 2.

[3] = Physical stability on storage: appearance score (color and texture); set-up: key to Appearance, scale: 1 = good 5 = bad / Appearance / Appearance t = 7 days / Appearance t = 14 days: 1=very good (no change in color and texture of the sample); 5=not good (changed both in color (became yellow) and in texture (absorbed water and reduced shine of sample)); settings: for Appearance, scale: 1 = good 5 = bad: 55° C./75% RH Day 0; for Appearance: 55° C./75% RH Day 5; for Appearance t = 7 days / Appearance t = 14 days / Appearance t = 28 days: 40° C./75% RH
Text: As used herein the term “physical stability” of a composition means the appearance of the composition is substantially unchanged and/or the hygroscopicity is low.
The term “appearance” as used herein describes the color and texture of a composition. The color of a composition according to a scored scale, as assessed by one of ordinary skill in the art in view of the following guidelines. A discoloration score of 1 indicates material without discoloration, whereas a discoloration score of 5 indicates severe discoloration (almost complete discoloration) relative to the color of the material as obtained after preparation and prior to storage. In the present invention the composition preferably has a white color immediately after processing and generally remains white if stable. Discoloration to a yellow color is typical when the composition is unstable. Similarly, a texture score of 1 indicates material having an uniform and smooth texture, whereas a texture score of 5 indicates a nonuniform and rough texture. The texture may be determined by visual inspection by one of ordinary skill in the art. For both discoloration and texture, scores 2 to 4 represent 5 “some or slight (change)” for a score of 2, “medium (change)” for a score of 3, and “substantial (change)” for a score of 4.
as §1

[4] = Gain of weight (moisture uptake) on storage at 40° C./75% RH
Text: Texture is often highly correlated with hygroscopicity. Water/moisture absorption tends to reduce shine, for example. Water hygroscopicity can be determined by weight gain analyses.
Embodiments of the invention are preferably packaged with a desiccant, such as silica. The container preferably has a high moisture barrier, examples of which are known in the art. In a preferred packaged pharmaceutical composition of the present invention an amount of desiccant which will assure a weight gain due to moisture of not more than (NMT) 5%, preferably 0.5%, more preferably 0.05%, is preferred in order to maintain a good appearance and low water absorption for a maximum period of time. For example, the weight gain of the packaged material of the present invention after storage (i) at a temperature of about 55° C. and about 75% relative humidity for 5 days, and/or (ii) at a temperature of about 40° C. and about 75% relative humidity for 30 days, is less than about 15%, preferably less than about 10%, more preferably less than about 5% by weight.

[5] = Hygroscopicity of imatinib depending on the physical structure of the active drug

SMILES	Physical [1]	Chemical: Assay ([2]; 55° C./75% RH Day 0)	Chemical: main deg ([2]; 55° C./75% RH Day 0)	Chemical: Assay ([2]; 55° C./75% RH Day 5)	Chemical: main deg ([2]; 55° C./75% RH Day 5)	Appearance, scale: 1 = good 5 = bad [3]	Appearance [3]	Appearance t = 7 days [3]	Appearance t = 14 days [3]	Appearance t = 28 days [3]	Wt gain T = 7 days [4] [%]	Wt gain T = 14 days [4] [%]	Wt gain T = 28 days [4] [%]	hygroscopicity compared to crystalline material [5]
Cc1ccc(NC(=O)c2ccc(CN3CCN(C)CC3)cc2)cc1Nc1nccc(-c2cccnc2)n1 [Active drug (Crystalline 1), imatinib mesylate]	Alpha	97.5	0.12	98.8	0.12	1	1							
Cc1ccc(NC(=O)c2ccc(CN3CCN(C)CC3)cc2)cc1Nc1nccc(-c2cccnc2)n1 [Active drug (Crystalline 2) Packed with silica] [imatinib mesylate]								1	1	2	12.42	7.79	8.86	
Cc1ccc(NC(=O)c2ccc(CN3CCN(C)CC3)cc2)cc1Nc1nccc(-c2cccnc2)n1 [Active drug (Amorphous), imatinib mesylate]	amrph	88.6	0.46	97.8	0.44	1	5							much more hygroscopic
Cc1ccc(NC(=O)c2ccc(CN3CCN(C)CC3)cc2)cc1Nc1nccc(-c2cccnc2)n1 [Active drug (Crystalline 2), imatinib mesylate]		94.5	0.11	98.8	0.13	1	4	1	1-2	3	21.49	17.75	18.3	
